According to patent publication US20220249599A1, “TREATMENT OF IMPLANTS WITH ENGINEERED ANTIMICROBIAL AMPHIPHILIC PEPTIDES” (priority 2018, published 2022):
Several values for one entry are separate records, joined by “and”; a condition that tells them apart may be missing. Identical values can stand only once. Like-named read-outs stand apart in the source and are kept apart here. Marks after values point to notes of the source that are not given here. Ends that are not written are not given here.

Legend:
[1] = test system: Staphylococcus aureus (n = 104); test: microbe, parasite or virus in culture; assay type: cell-based
Experimental: (§1) The clinical isolates were obtained from USA hospitals. […] Plates were incubated at 35° C. overnight.

[2] = test system: Enterococcus faecium (n = 104); test: microbe, parasite or virus in culture; details: n = 104
Experimental: Comparator antibiotics were supplied by Micromyx, and stock solutions were prepared on the first day of testing using solvents recommended by CLSI (1). Stock solutions of all compounds were made at 40× the final testing concentration and stored at −80° C. prior to testing. Information regarding compound source, catalog and lot number, testing concentrations and drug diluent for the comparators and test agent are detailed below in Table 3.
The test organisms evaluated in this study consisted of clinical isolates from the Micromyx Repository and reference isolates from the American Type Culture Collection (ATCC; Manassas, Va.). The clinical isolates were obtained from USA hospitals. Upon initial receipt at Micromyx, the organisms were sub-cultured onto an appropriate agar medium. Following incubation, colonies were harvested from these plates and cell suspensions prepared and frozen at −80° C. with a cryoprotectant. Prior to testing, the isolates were streaked from frozen vials onto Trypticase Soy Agar with 5% sheep blood (Becton Dickenson [BD]; Sparks, MD; Lot Nos. 7173618, 7166759, 7208688, 72144895, 7228505 and Remel Lenexa, Kans. Lot No. 212574). Plates were incubated at 35° C. overnight.
Mueller Hinton II broth (MHB II; BD; Lot Nos. 6258541 and 7143896) was used for MIC testing of aerobic organisms.
MIC values were determined using a broth microdilution procedure described by CLSI (1, 3). Automated liquid handlers (Multidrop 384, Labsystems, Helsinki, Finland; Biomek 2000 and Biomek FX, Beckman Coulter, Fullerton Calif.) were used to conduct serial dilutions and liquid transfers.
To prepare the drug mother plates, which would provide the serial drug dilutions for the replicate daughter plates, the wells of columns 2-12 of standard 96-well microdilution plates (Costar 3795) were filled with 150 µl of the designated diluent for each row of drug. The test articles and comparator compounds ([…] at 40× the highest concentration to be tested) were dispensed into the appropriate wells in column 1. The Biomek 2000 was then used to make 2-fold serial dilutions in the mother plates from column 1 through column 11. The wells of Column 12 contained no drug and served as the organism growth control wells for the assay.
The daughter plates were loaded with […] per well of MHB II using the Multidrop 384. The daughter plates were completed on the Biomek FX instrument which transferred 5 µL of drug solution from each well of a mother plate to the corresponding well of each daughter plate in a single step. A standardized inoculum of each test organism was prepared per CLSI methods (1). The inoculum for each organism was dispensed into sterile reservoirs divided by length (Beckman Coulter), and the Biomek 2000 was used to inoculate the plates. Daughter plates were placed on the Biomek 2000 work surface in reverse orientation so that inoculation took place from low to high drug concentration.
Plates were stacked 3-4 high, covered with a lid on the top plate, placed in plastic bags, and incubated at 35° C. for 16 to 20 hrs. Following incubation, the microplates were removed from the incubator and viewed from the bottom using a plate viewer. […] The MIC was read and recorded as the lowest concentration of drug that inhibited visible growth of the organism.
Clinical breakpoints to determine percent resistance within a given organism group were obtained from CLSI (3), with the exception of colistin for K. pneumoniae, Enterobacter spp., and E. coli, which are only available from EUCAST.

[3] = monkey
Experimental: Animals will be obtained from the Test Facility's colony of adult male cynomolgous monkeys (Macaca fascicularis) of Chinese origin. Animals will be weighed prior to dosing.
Intravenous administration will be via 30 minute infusion into a temporary percutaneous catheter placed into a saphenous vein. Prior to and following dose administration, the catheter will be flushed with 0.5 mL saline prior to removal. All dosing syringes will be weighed prior to and following dosing.
Serial blood samples will be collected via femoral vein (cephalic or saphenous, as necessary). Approximately 1 mL blood samples will be collected into K2EDTA tubes.
Blood samples will be collected into K2EDTA tubes and stored on wet ice. Whole blood will be processed to plasma by centrifugation (2400-2700 rpm at 5° C.) within 30 minutes of collection. Plasma samples will be split into 2 equal aliquots and stored at −80° C. until analysis.
(§2) Prior to extraction, a known concentration of a mass-adjusted internal standard (IS) will be added to assess recovery and allow for quantitation. Purified samples will be further subjected to high-performance liquid chromatography (HPLC) using C18 300 or 130 angstrom columns prior to MS/MS analysis. Multiple charge states will be observed by MS, so MS/MS will be employed to enable multiple reaction monitoring (MRM) analyses to determine the most MRM transitions with the highest signal-to-noise gain. Compound plasma concentrations will be determined by comparing to and compensating with co-purified IS peak intensity and validated calibrated standard curves.
Toxicokinetic parameters will be calculated using non-compartmental methods as implemented in the Phoenix® WinNonlin® ver. 6.3 comprehensive TK/PK analysis software program (Pharsight Corporation; Mountain View, Calif.) using an IV infusion model. Toxicokinetic analysis will be conducted using a 30-minute intravenous infusion time. Therefore, 30 minutes will be added to each sample time point postdose to obtain nominal time for TK analysis. Nominal times and dosage levels will be used for all calculations. Values below the lower limit of quantitation (BLQ) will be assigned a value of zero for the toxicokinetic calculations. Microsoft® Excel® 2013 will be used for receipt of bioanalytical data, minor formatting, including setting BLQ values to “0”, transfer into WinNonlin® for TK analysis, and calculation of the mean when an approximated value will be excluded. All plasma concentration data from all animals will be included in the analysis.

[4] = test system: Escherichia coli (n = 101); assay type: cell-based; details: n = 101
Experimental: as §1

[5] = test system: Klebsiella pneumoniae (n = 101); assay type: cell-based
Experimental: as §1

[6] = test system: Acinetobacter spp. (n = 104); assay type: cell-based
Experimental: as §1

[7] = test system: Pseudomonas aeruginosa (n = 109); assay type: cell-based; details: P. aeruginosa colistin-resistant (COL^R) isolates, n 8
Experimental: as §1

[8] = test system: Enterobacter spp. (n = 102); assay type: cell-based, Enterobacter aerogenes and E. cloacae
Experimental: as §1

[9] = mouse
Text: Male CD-1 mice will be received from an approved vendor and allowed to acclimate for a minimum of two days. Fasting will be not required.
All dosing syringes will be weighed prior to and following dosing. IV doses will be administered as a slow bolus (over ˜30 seconds) via direct venipuncture of a tail vein. All animals will be observed at dosing and each scheduled collection. All abnormalities will be recorded.
Terminal blood samples will be collected via cardiac puncture following inhalation anesthesia.
Sample Processing and Storage: Blood samples will be collected into K2EDTA tubes and stored on wet ice. Whole blood will be processed to plasma by centrifugation (3500 rpm at 5° C.) within 30 minutes of collection. Plasma samples will be split into 2 equal aliquots and each transferred into 96 well plates (matrix tubes) and stored at −80° C. until analysis. Administered doses will be determined gravimetrically.
as §2
Pharmacokinetic parameters will be calculated using non-compartmental methods as implemented in the Phoenix® WinNonlin® ver. 6.3 comprehensive TK/PK analysis software program (Pharsight Corporation; Mountain View, Calif.) using an IV infusion model. Pharmacokinetic analysis will be conducted using a 30-minute intravenous infusion time. Therefore, 30 minutes will be added to each sample time point postdose to obtain nominal time for TK analysis. Nominal times and dosage levels will be used for all calculations. Values below the lower limit of quantitation (BLQ) will be assigned a value of zero for the pharmacokinetic calculations. Microsoft® Excel® 2013 will be used for receipt of bioanalytical data, minor formatting, including setting BLQ values to “0”, transfer into WinNonlin® for PK analysis, and calculation of the mean when an approximated value will be excluded. All plasma concentration data from all animals will be included in the analysis. Graphical presentations will be performed using Microsoft® Excel® 2013.

[10] = IV infusion 1 mg/kg, individual animals
[11] = IV infusion 3 mg/kg, individual animals
[12] = IV infusion 10 mg/kg, individual animals
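Wherever AUC0-24hr is given: adult male cynomolgus monkeys given a 30-min IV infusion, plasma drug levels quantified by LC-MS/MS against internal standard, parameters from non-compartmental IV infusion model analysis.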
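Wherever AUCinf Extrapolated is given: adult male cynomolgus monkeys given a 30-min IV infusion, plasma drug levels quantified by LC-MS/MS against internal standard, parameters from non-compartmental IV infusion model analysis.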
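Wherever AUClast is given: adult male cynomolgus monkeys given a 30-min IV infusion, plasma drug levels quantified by LC-MS/MS against internal standard, parameters from non-compartmental IV infusion model analysis.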
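Wherever Cmax is given: adult male cynomolgus monkeys given a 30-min IV infusion, plasma drug levels quantified by LC-MS/MS against internal standard, parameters from non-compartmental IV infusion model analysis.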

For “RRWVRRVRRVWRRVVRVVRRWVRR-NH2 (C-terminus assumed) [SEQ ID NO: 1]”, the MIC range ([1]; S. aureus MRSA isolates, n 104) was 1 to 16 µg/mL, the MIC range ([1]; Staphylococcus aureus (n = 104), all methicillin-resistant) was 1 to 16 µg/mL and the MIC50 ([1]; n = 104) was 4 µg/mL. The “Mode (MIC)” value ([1]; n = 104) was 4 µg/mL, the MIC50 [2] was 0.5 µg/mL and the MIC90 [2] was 1 µg/mL. The MIC range [2] was 0.25 to 2 µg/mL, the “Mode (MIC)” value [2] was 1 µg/mL and the AUC0-24hr ([3]; IV infusion 1 mg/kg, Mean) was 1090 ng·h/mL. The AUCinf ([3]; IV infusion 1 mg/kg, Mean) was 1170 ng·h/mL, the “AUCinf Extrapolated” value ([3]; IV infusion 1 mg/kg, Mean) was 10.0% and the AUClast ([3]; IV infusion 1 mg/kg, Mean) was 983 ng·h/mL. The Cmax ([3]; IV infusion 1 mg/kg, Mean) was 1710 ng/mL, the “Dose Normalized AUClast” value ([3]; IV infusion 1 mg/kg, Mean) was 983 and the “Dose Normalized Cmax” value ([3]; IV infusion 1 mg/kg, Mean) was 1710. The T1/2 ([3]; IV infusion 1 mg/kg, Mean) was 2 h, the Vss ([3]; IV infusion 1 mg/kg, Mean) was 1380 mL/kg and the AUC0-24hr [3, 10] was 821 ng·h/mL and 1820 ng·h/mL and 616 ng·h/mL. The AUCinf [3, 10] was 938* hr*ng/mL and 1730 hr*ng/mL and 610 hr*ng/mL, the AUClast [3, 10] was 740 ng·h/mL and 1610 ng·h/mL and 595 ng·h/mL and the CL [3, 10] was 1070* mL/hr/kg and 579 mL/hr/kg and 1640 mL/hr/kg. The Cmax [3, 10] was 1460 ng/mL and 2660 ng/mL and 997 ng/mL, the “Dose Normalized AUClast” value [3, 10] was 740 and 1610 and 595 and the “Dose Normalized Cmax” value [3, 10] was 1460 and 2660 and 997. The Tmax [3, 10] was 2 min, the Vss [3, 10] was 1530* mL/kg and 1260 mL/kg and 1510 mL/kg and the AUC0-24hr ([3]; IV infusion 3 mg/kg, Mean) was 7580 ng·h/mL. For the same substance, the AUCinf ([3]; IV infusion 3 mg/kg, Mean) was 7710 ng·h/mL, the “AUCinf Extrapolated” value ([3]; IV infusion 3 mg/kg, Mean) was 1.5% and the AUClast ([3]; IV infusion 3 mg/kg, Mean) was 7580 ng·h/mL. The Cmax ([3]; IV infusion 3 mg/kg, Mean) was 10300 ng/mL, the “Dose Normalized AUClast” value ([3]; IV infusion 3 mg/kg, Mean) was 2530 and the “Dose Normalized Cmax” value ([3]; IV infusion 3 mg/kg, Mean) was 3450. The T1/2 ([3]; IV infusion 3 mg/kg, Mean) was 5.2 h, the Vss ([3]; IV infusion 3 mg/kg, Mean) was 1290 mL/kg and the AUC0-24hr [3, 11] was 6650 ng·h/mL and 11000 ng·h/mL and 5120 ng·h/mL. The AUCinf [3, 11] was 6730 ng·h/mL and 11200 ng·h/mL and 5180 ng·h/mL, the “AUCinf Extrapolated” value [3, 11] was 1.2% and 2.3% and 1.1% and the AUClast [3, 11] was 6650 ng·h/mL and 11000 ng·h/mL and 5120 ng·h/mL. The CL [3, 11] was 446 mL/h/kg and 267 mL/h/kg and 580 mL/h/kg, the Cmax [3, 11] was 6830 ng/mL and 15500 ng/mL and 8690 ng/mL and the “Dose Normalized AUClast” value [3, 11] was 2220 and 3660 and 1710. For the same substance, the “Dose Normalized Cmax” value [3, 11] was 2280 and 5170 and 2900, the T1/2 [3, 11] was 4.4 h and 6.3 h and 5 h and the Tmax [3, 11] was 2 min and 1.5 min. For the same substance, the Vss [3, 11] was 1580 mL/kg and 905 mL/kg and 1370 mL/kg, the AUC0-24hr ([3]; IV infusion 10 mg/kg, Mean) was 50300 ng·h/mL and the AUCinf ([3]; IV infusion 10 mg/kg, Mean) was 50800 ng·h/mL. The “AUCinf Extrapolated” value ([3]; IV infusion 10 mg/kg, Mean) was 1.3%, the AUClast ([3]; IV infusion 10 mg/kg, Mean) was 50300 ng·h/mL and the Cmax ([3]; IV infusion 10 mg/kg, Mean) was 38200 ng/mL. The “Dose Normalized AUClast” value ([3]; IV infusion 10 mg/kg, Mean) was 5030, the “Dose Normalized Cmax” value ([3]; IV infusion 10 mg/kg, Mean) was 3820 and the T1/2 ([3]; IV infusion 10 mg/kg, Mean) was 4.6 h. The Vss ([3]; IV infusion 10 mg/kg, Mean) was 1260 mL/kg, the “AUCinf Extrapolated” value [3, 12] was 1.0% and 1.8% and 0.99% and the Cmax [3, 12] was 26000 ng/mL and 24300 ng/mL and 64300 ng/mL. For the same substance, the “Dose Normalized Cmax” value [3, 12] was 2600 and 2430 and 6430, the T1/2 [3, 12] was 4.3 h and 4.9 h and 4.6 h and the Tmax [3, 12] was 2 min. The MIC90 [4] was 4 µg/mL, the “Mode (MIC)” value [4] was 2 µg/mL and the MIC90 ([5]; K. pneumoniae colistin-resistant (COL^R) isolates, n 28) was 16 µg/mL. The “Mode (MIC)” value ([5]; n = 101) was 8 µg/mL, the MIC90 [6] was 4 µg/mL and the “Mode (MIC)” value [6] was 4 µg/mL. For the same substance, the MIC90 ([6]; Acinetobacter colistin-resistant (COL^R) isolates, n 21) was 16 µg/mL, the MIC90 [7] was 16 µg/mL and the “Mode (MIC)” value [8] was 16 µg/mL. For the same substance, the AUCIinf_D ([9]; IV Dose 3 mg/kg) was under 3500 kg·ng·h/mL/ng, the AUCinf ([9]; IV Dose 3 mg/kg) was under 3500 ng·h/mL and the Extrapolated ([9]; IV Dose 3 mg/kg) was about 0.5%. It also gave an MRTlast ([9]; IV Dose 3 mg/kg) of about 0.5 h, a T1/2 ([9]; IV Dose 3 mg/kg) of about 8 h and an AUCIinf_D ([9]; IV Dose 15 mg/kg) of 3589 kg·ng·h/mL/ng. For the same substance, the Extrapolated ([9]; IV Dose 15 mg/kg) was 0.49%.
